{"source": "patent EP0641564A1", "about": "“OPTICALLY ACTIVE CONDENSED PYRAZOLE COMPOUND FOR USE IN TREATING THROMBOCYTOPENIA AND ERYTHROPENIA” (YOSHITOMI PHARMACEUTICAL INDUSTRIES, LTD., priority 1992, dated 1993)", "key": {"[1]": {"system": "mice irradiated with X-rays", "assay": "Promoting action on recovery of erythrocyte count in mice irradiated with X-rays (preventive effects)", "format": "in vivo, BALB/c mice", "conditions": "mean±SD", "method": "Experimental Example 3 : Promoting action on recovery of erythrocyte count in mice irradiated with X-rays (preventive effects)\n(§1) BALB/c mice (4-5 weeks old) were exposed to 4.0 Gy total body irradiation. Compound A was intravenously administered for 3 consecutive days starting from 3 days before and up to the previous day of the irradiation. On day 19 and day 22 after the X-ray irradiation, blood was taken from orbital vein plexus of mice and erythrocyte count was measured using an automatic cell counter. The experiment was done with 8 mice per group and the results are shown as mean value±standard deviation."}, "[2]": {"system": "mice transplanted with bone marrow", "assay": "Promoting action on recovery of erythrocyte count in mice transplanted with bone marrow", "format": "in vivo, ICR mice", "conditions": "X-irradiation (8.0 Gy)+bone marrow transplantation, day 11", "from_the_text": "Experimental Example 5 : Promoting action on recovery of erythrocyte count in mice transplanted with bone marrow\n(§2) ICR mice (6-8 weeks old) were exposed to 8.0 Gy total body irradiation and 10⁷ bone marrow cells from the mice of the same species were transplanted to the mice. Then, Compound A was intravenously administered for 9 consecutive days starting from the next day of the bone marrow transplantation. On day 11 after the bone marrow transplantation, heparinized blood was taken from the abdominal aorta of mice and erythrocyte count was measured using an automatic cell counter. The experiment was done with 5 mice per group."}, "[3]": {"system": "mice transplanted with bone marrow", "assay": "Promoting action on recovery of platelet count in mice transplanted with bone marrow", "format": "in vivo, ICR mice", "conditions": "day 11; for Platelet count: X-irradiation (8.0 Gy)+bone marrow transplantation; for Increase in platelet count: difference between untreated group and bone marrow transplanted group = 100%", "from_the_text": "Experimental Example 1 : Promoting action on recovery of platelet count in mice transplanted with bone marrow\nas §2, with “A or Compound B” for “A”, “platelet” for “erythrocyte”, “group. The difference in platelet count between an untreated group and the bone marrow transplanted group was taken as 100%, based on which increase in the platelet count was calculated.” for “group.”"}, "[4]": {"system": "rats administered with anti-tumor drug", "assay": "Promoting action on recovery of decreased platelet count in rats administered with anti-tumor drug (nimustine hydrochloride)", "format": "in vivo, SD rats", "conditions": "1.0 mg/kg i.v. on day 8, 9, 10 and 14 after initial nimustine hydrochloride", "method": "Experimental Example 2 : Promoting action on recovery of decreased platelet count in rats administered with anti-tumor drug\nAn anti-tumor drug, nimustine hydrochloride, (30 mg/kg) was intravenously administered to SD rats (6 weeks old) and 15 mg/kg thereof was intravenously administered the next day. Compound A was intravenously administered for 4 days on day 8, day 9, day 10 and day 14 after the initial administration of nimustine hydrochloride. On certain days after the administration, heparinized blood was taken from the rat tail vein and platelet count was measured using an automatic cell counter. The experiment was done with 4-6 rats per group."}, "[5]": {"system": "mice administered with cyclophosphamide", "assay": "Stimulating action on recovery of leukocyte count (cyclophosphamide-treated mice)", "format": "in vivo, ICR mice", "conditions": "for Leukocyte count: cyclophosphamide 200 mg/kg i.p., day 4; for Increase in leukocyte count: relative ratio to count of mice administered with cyclophosphamide (=100)", "method": "Experimental Example 7 : Stimulating action on recovery of leukocyte count\nICR mice (20-25 g body weight) were intraperitoneally administered with 200 mg/kg of cyclophosphamide and the compound of the present invention was intravenously administered for 3 days starting from the next day of the administration. On day 4 after the cyclophosphamide administration, the blood of the ICR mice was taken and leukocyte count was measured using Coulter counter. The relative ratio of the count to the peripheral leukocyte count of the mice administered with cyclophosphamide was calculated and expressed in percentage."}, "rats": {"system": "rats", "assay": "Acute toxicity test", "format": "in vivo", "conditions": "orally administered to rats, dose of 1000 mg/kg", "method": "Experimental Example 9 : Acute toxicity test\nCompound A, Compound B or Compound C was orally administered to rats. As a result, no death case was found at a dose of 1000 mg/kg."}, "[6]": {"system": "mice irradiated with X-rays", "assay": "Promoting action on recovery of erythrocyte count in mice irradiated with X-rays (therapeutic effects)", "format": "in vivo, BALB/c mice", "conditions": "day 14, mean±SD", "method": "Experimental Example 4 : Promoting action on recovery of erythrocyte count in mice irradiated with X-rays (therapeutic effects)\nas §1, with “for 9” for “for 3”, “from” for “from 3 days before and up to”, “the next” for “the previous”, “the X-ray irradiation to 9 days thereafter.” for “the irradiation.”, “day 14” for “day 19 and day 22”, “with 6” for “with 8”"}, "[7]": {"system": "mice transplanted with bone marrow", "assay": "Promoting action on recovery of leukocyte count in mice transplanted with bone marrow", "format": "in vivo, ICR mice", "conditions": "for Leukocyte count: X-irradiation (8.0 Gy)+bone marrow transplantation (day 0, 7, 14); for Leukocyte count / Increase in leukocyte count: day 38; for Increase in leukocyte count: relative ratio of increased count to decreased count of bone marrow transplanted mice", "method": "Experimental Example 8 : Promoting action on recovery of leukocyte count in mice transplanted with bone marrow\nICR mice (6-8 weeks old) were exposed to 8.0 Gy total body irradiation and 10⁷ bone marrow cells from the mice of the same species were transplanted to the mice. The bone marrow transplantation was performed three times on day 0, day 7 and day 14. Then, the compound of the present invention was intravenously administered for 14 consecutive days starting from the next day of the first bone marrow transplantation. On day 38 after the first bone marrow transplantation, blood was taken and leukocyte count was measured using an automatic cell counter. The experiment was done with 5 mice per group. The relative ratio of the increased leukocyte count to the decreased leukocyte count of the mice transplanted with bone marrow was calculated and expressed in percentage."}, "[8]": {"conditions": "0.01 mg/kg i.v. for 3 consecutive days before 4.0 Gy irradiation"}, "[9]": {"conditions": "0.1 mg/kg i.v. for 3 consecutive days before 4.0 Gy irradiation"}, "[10]": {"conditions": "1 mg/kg i.v. for 3 consecutive days before 4.0 Gy irradiation"}, "[11]": {"conditions": "0.01 mg/kg i.v. for 14 consecutive days"}, "[12]": {"conditions": "0.1 mg/kg i.v. for 14 consecutive days"}}}
{"smiles": "CC(CN(C)C)Oc1ccc(-c2nn(CC(=O)O)c3ncccc23)cc1", "note": "(stereo not drawn) [Comp. A, 3-[4-(2-dimethylamino-1-methylethoxy)phenyl]-1H-pyrazolo[3,4-b]pyridine-1-acetic acid]", "values": [{"measurement": "Erythrocyte count day 19", "setting": "[1]; [8]", "result": "835±102 10⁴/mm³"}, {"measurement": "Erythrocyte count day 22", "setting": "[1]; [8]", "result": "904±45 10⁴/mm³"}, {"measurement": "Erythrocyte count day 19", "setting": "[1]; [9]", "result": "837±118 10⁴/mm³"}, {"measurement": "Erythrocyte count day 22", "setting": "[1]; [9]", "result": "916±86 10⁴/mm³"}, {"measurement": "Erythrocyte count day 19", "setting": "[1]; [10]", "result": "856±118 10⁴/mm³"}, {"measurement": "Erythrocyte count day 22", "setting": "[1]; [10]", "result": "932±86 10⁴/mm³"}, {"measurement": "Erythrocyte count", "setting": "[2]; 0.01 mg/kg i.v. for 9 consecutive days", "result": "699±51 10⁴/mm³"}, {"measurement": "Erythrocyte count", "setting": "[2]; 0.1 mg/kg i.v. for 9 consecutive days", "result": "714±56 10⁴/mm³"}, {"measurement": "Platelet count", "setting": "[3]; Table 1, 0.01 mg/kg i.v. for 9 consecutive days", "result": "27.4±9.6 10⁴/mm³"}, {"measurement": "Increase in platelet count", "setting": "[3]; Table 1, 0.01 mg/kg i.v.", "result": 30, "unit": "%"}, {"measurement": "Platelet count", "setting": "[3]; Table 1, 0.03 mg/kg i.v. for 9 consecutive days", "result": "31.4±11.4 10⁴/mm³"}, {"measurement": "Increase in platelet count", "setting": "[3]; Table 1, 0.03 mg/kg i.v.", "result": 41, "unit": "%"}, {"measurement": "Platelet count", "setting": "[3]; Table 1, 0.1 mg/kg i.v. for 9 consecutive days", "result": "42.3±10.6 10⁴/mm³"}, {"measurement": "Increase in platelet count", "setting": "[3]; Table 1, 0.1 mg/kg i.v.", "result": 71, "unit": "%"}, {"measurement": "Platelet count", "setting": "[3]; Table 1, 0.3 mg/kg i.v. for 9 consecutive days", "result": "49.8±9.7 10⁴/mm³"}, {"measurement": "Increase in platelet count", "setting": "[3]; Table 1, 0.3 mg/kg i.v.", "result": 91, "unit": "%"}, {"measurement": "Platelet count day 25", "setting": "[4]; day 25", "result": "17.7±21.8 10⁴/mm³"}, {"measurement": "Platelet count day 44", "setting": "[4]; day 44", "result": "57.3±20.2 10⁴/mm³"}, {"measurement": "Leukocyte count", "setting": "[5]; 0.01 mg/kg i.v. for 3 days", "result": "18±8 10²/mm³"}, {"measurement": "Increase in leukocyte count", "setting": "[5]; 0.01 mg/kg i.v.", "result": 164, "unit": "%"}, {"measurement": "Leukocyte count", "setting": "[5]; 0.1 mg/kg i.v. for 3 days", "result": "25±6 10²/mm³"}, {"measurement": "Increase in leukocyte count", "setting": "[5]; 0.1 mg/kg i.v.", "result": 227, "unit": "%"}, {"measurement": "Leukocyte count", "setting": "[5]; 1 mg/kg i.v. for 3 days", "result": "30±6 10²/mm³"}, {"measurement": "Increase in leukocyte count", "setting": "[5]; 1 mg/kg i.v.", "result": 273, "unit": "%"}, {"measurement": "death cases (acute toxicity)", "setting": "rats", "result": "no death case"}, {"measurement": "Erythrocyte count", "setting": "[6]; 0.01 mg/kg i.v. for 9 consecutive days after 4.0 Gy irradiation", "result": "535±98 10⁴/mm³"}, {"measurement": "Erythrocyte count", "setting": "[6]; 0.1 mg/kg i.v. for 9 consecutive days after 4.0 Gy irradiation", "result": "686±72 10⁴/mm³"}, {"measurement": "Leukocyte count", "setting": "[7]; [11]", "result": "65±7 10²/mm³"}, {"measurement": "Increase in leukocyte count", "setting": "[7]; 0.01 mg/kg i.v.", "result": 30, "unit": "%"}, {"measurement": "Leukocyte count", "setting": "[7]; [12]", "result": "75±5 10²/mm³"}, {"measurement": "Increase in leukocyte count", "setting": "[7]; 0.1 mg/kg i.v.", "result": 46, "unit": "%"}, {"measurement": "Leukocyte count", "setting": "[7]; 1 mg/kg i.v. for 14 consecutive days", "result": "81±4 10²/mm³"}, {"measurement": "Increase in leukocyte count", "setting": "[7]; 1 mg/kg i.v.", "result": 56, "unit": "%"}]}
{"smiles": "C[C@@H](CN(C)C)Oc1ccc(-c2nn(CC(=O)O)c3ncccc23)cc1", "note": "[Comp. B, (S)-3-[4-(2-dimethylamino-1-methylethoxy)phenyl]-1H-pyrazolo[3,4-b]pyridine-1-acetic acid]", "values": [{"measurement": "Platelet count", "setting": "[3]; Table 2, 0.01 mg/kg i.v. for 9 consecutive days", "result": "45.9±6.7 10⁴/mm³"}, {"measurement": "Increase in platelet count", "setting": "[3]; Table 2, 0.01 mg/kg i.v.", "result": 65, "unit": "%"}, {"measurement": "Platelet count", "setting": "[3]; Table 2, 0.03 mg/kg i.v. for 9 consecutive days", "result": "54.8±13.6 10⁴/mm³"}, {"measurement": "Increase in platelet count", "setting": "[3]; Table 2, 0.03 mg/kg i.v.", "result": 81, "unit": "%"}, {"measurement": "Leukocyte count", "setting": "[5]; 0.003 mg/kg i.v. for 3 days", "result": "19±5 10²/mm³"}, {"measurement": "Increase in leukocyte count", "setting": "[5]; 0.003 mg/kg i.v.", "result": 173, "unit": "%"}, {"measurement": "Leukocyte count", "setting": "[5]; 0.03 mg/kg i.v. for 3 days", "result": "27±5 10²/mm³"}, {"measurement": "Increase in leukocyte count", "setting": "[5]; 0.03 mg/kg i.v.", "result": 245, "unit": "%"}, {"measurement": "Leukocyte count", "setting": "[5]; 0.3 mg/kg i.v. for 3 days", "result": "30±6 10²/mm³"}, {"measurement": "Increase in leukocyte count", "setting": "[5]; 0.3 mg/kg i.v.", "result": 273, "unit": "%"}, {"measurement": "strength of leukocyte count recovery effect relative to Compound A", "setting": "[5]; cyclophosphamide-pretreated mice, comparison from Table 7", "result": "about three times stronger effect"}, {"measurement": "death cases (acute toxicity)", "setting": "rats", "result": "no death case"}, {"measurement": "Leukocyte count", "setting": "[7]; [11]", "result": "76±10 10²/mm³"}, {"measurement": "Increase in leukocyte count", "setting": "[7]; 0.01 mg/kg i.v.", "result": 48, "unit": "%"}, {"measurement": "Leukocyte count", "setting": "[7]; [12]", "result": "89±6 10²/mm³"}, {"measurement": "Increase in leukocyte count", "setting": "[7]; 0.1 mg/kg i.v.", "result": 69, "unit": "%"}, {"measurement": "strength of leukocyte count recovery effect relative to Compound A", "setting": "[7]; bone marrow transplanted mice, comparison from Table 8", "result": "about ten times stronger effect"}]}
{"smiles": "CCOC(=O)Cn1nc(-c2ccc(O[C@@H](C)CN(C)C)cc2)c2cccnc21.Cl", "note": "[Compound C, ethyl (S)-3-[4-(2-dimethylamino-1-methylethoxy)phenyl]-1H-pyrazolo[3,4-b]pyridine-1-acetate hydrochloride]", "values": [{"measurement": "death cases (acute toxicity)", "setting": "rats", "result": "no death case"}]}
